{"source": "paper PMC7503370", "about": "“Cellular Signaling and Anti-Apoptotic Effects of Prolactin-Releasing Peptide and Its Analog on SH-SY5Y Cells” (International Journal of Molecular Sciences, 2020)", "test_system": "SH-SY5Y cells", "assay": "Pretreatment with peptides before MG stress, MTT cell viability", "type": "cell-based, human", "settings": "4 h pretreatment 1 × 10^−7 M, then 1.2 mM MG 16 h, n = 3, octuplicates", "experimental": "Figure 5 PrRP31 and its analog increased cell viability during the MG-induced stress. Pre-treatment for 4 h with PrRP31 and palm^11-PrRP31 at a concentration of: (a) 1 × 10^−5 M; or (b) 1 × 10^−7 M, followed by exposure to 1.2 mM MG for 16 h in SH-SY5Y cells. Pre-treatment for 4 h with PrRP31 and palm^11-PrRP31 at a concentration of: (c) 1 × 10^−5 M; (d) 1 × 10^−7 M in SH-SY5Y cells; or (e) 1 × 10^−5 M in rat primary neuronal culture, followed by exposure to 0.6 mM MG for 16 h in SH-SY5Y cells. MG toxicity was measured with MTT assay. Data are presented as the means ± SEM as a percentage of control cells treated with vehicle analyzed by a Student’s t-test vs. 0.6 mM MG # p < 0.5, ## p < 0.01, ### p < 0.001, #### p < 0.0001 (n = 3, each sample in octuplicates). Control vs. 0.6 mM MG analyzed by a Student´s t-test, * p < 0.5, ** p < 0.01.\nThe MTT test was used to measure cell viability. The MTT reagent was dissolved in RPMI-1640 without phenol red. Cells were incubated for 2 h with a 10% solution of MTT at 37 °C. Living cells converted soluble MTT to insoluble formazan, which was subsequently dissolved in DMSO. The absorbance was measured at a wavelength of 560 nm.\nFor this assay, cells were cultured in 96-well plates at a density of 40,000 cells per well. The growth medium was exchanged for serum-free DMEM 16 h before the experiment. […]", "data": [{"compound": "CC[C@H](C)[C@H](NC(=O)CNC(=O)[C@H](CCCNC(=N)N)NC(=O)[C@H](CO)NC(=O)[C@H](C)NC(=O)[C@H](Cc1ccc(O)cc1)NC(=O)[C@H](Cc1c[nH]c2ccccc12)NC(=O)[C@H](C)NC(=O)[C@@H]1CCCN1C(=O)[C@H](CC(N)=O)NC(=O)[C@@H](NC(=O)[C@H](CC(=O)O)NC(=O)[C@@H]1CCCN1C(=O)[C@@H](NC(=O)[C@H](CCCNC(=N)N)NC(=O)[C@@H](NC(=O)[C@H](CCC(=O)O)NC(=O)[C@H](CCSC)NC(=O)[C@H](CO)NC(=O)[C@H](Cc1c[nH]cn1)NC(=O)[C@H](CCCNC(=N)N)NC(=O)[C@H](Cc1c[nH]cn1)NC(=O)[C@@H](NC(=O)[C@H](CCCNC(=N)N)NC(=O)[C@@H](N)CO)[C@@H](C)O)[C@@H](C)CC)[C@@H](C)O)[C@@H](C)CC)C(=O)N[C@@H](CCCNC(=N)N)C(=O)N1CCC[C@H]1C(=O)N[C@H](C(=O)NCC(=O)N[C@@H](CCCNC(=N)N)C(=O)N[C@@H](Cc1ccccc1)C(N)=O)C(C)C", "note": "[PrRP31]", "values": [{"measurement": "cell viability (% of control cells)", "result": "not"}]}]}
